These are literature values, as cited in paper PMC11435065, “Inhibition of P-Glycoprotein Asymmetrically Alters the In Vivo Exposure Profile of SGC003F: A Novel Guanylate Cyclase Stimulator” (Pharmaceuticals, 2024).

Details of the series: method as in PMID 24398461. To be noted: rats, one hour after administration, with 1.0 mg/kg tariquidar; cited from earlier work.

Consider `CN(C)C(=O)C(CCN1CCC(O)(c2ccc(Cl)cc2)CC1)(c1ccccc1)c1ccccc1` [loperamide], for which the “Increase of loperamide levels in the brain” value is listed as 2.3 fold.
